In patent US20050020495A1, “Antiretroviral compositions comprising thymosin alpha peptides and protease inhibitors” (priority 2001, published 2005):
Ends that are not written are not given here.

How the values were obtained:
HIV [1] = assay: Randomised trial of Tα1 injections versus no injections in clinically stable HIV patients; TREC response in PBMCs, lymphocyte subsets, tolerability; assay type: in vivo, human
Procedure: Efficacy of HIV treatment is shown by evaluating TREC response in peripheral blood mononuclear cells (PBMCs) to treatment with Tα1 plus an HIV inhibitory agent.
Twenty clinically stable patients with viral loads <400 copies/ml and CD4 counts less than 200 cells/μl were randomised to receive 3.2 mg […] subcutaneous injections twice weekly or no injections for 12 weeks. CD4 and CD8 counts, CD45 RO+ and RA+ subsets and T cell re-excision circles (TREC) in peripheral blood mononuclear cells (PBMCs) were measured every four weeks, along with regular clinical assessments and routine laboratory tests.

HIV [2] = conditions: cited from earlier work

Thymosin α1 (SDAAVDTSSEITTKDLKEKKEVVEEAEN; not fully specified (N-terminus); ends and bridges not checked; UniProt P06454 2-29, looked up) [Tα1, 28-amino acid thymic peptide hormone with immunomodulatory properties, homologous to a natural product isolated from thymosin fraction 5 of calf thymuses]
Signs of toxicity during the trial (HIV [1]; 3.2 mg subcutaneous twice weekly for 12 weeks): no patients taking the medication developed signs of toxicity
Tolerability (HIV [1]; 3.2 mg subcutaneous twice weekly for 12 weeks, 13 patients on Tα1): well tolerated
Changes in CD4, CD8 and CD45 lymphocyte subsets versus controls (HIV [1]; over the 12 week study period): did not differ between the groups
Mean TREC levels relative to control group (HIV [1]; week 12): 20 times
Patients with detectable TREC levels versus control patients (HIV [1]; week 12): far more of the Tα1 group had detectable TREC levels than control patients
TREC levels in PBMCs versus controls (HIV [1]; week 12): significant increase
CD4 counts (HIV [2]; given in combination with either IL-2 or interferon-α): induced increases in CD4 counts
Systemic adverse reactions (HIV [2]; patients taking zidovudine monotherapy, contrasted with IL-2 or INF-α): virtual absence of any significant systemic adverse reactions
